The test system of one assay is ACVR1C. In words: SCOT trial longitudinal PBC gene expression: ACVR1C. Format: in vivo, human. The conditions noted are these: PBCs of SSc patients, baseline to 48/54 months, imputed data. The text has this: (§1) The SCOT trial compared the therapeutic outcomes of myeloablative CD34+selected autologous HSCT and CYC in severe diffuse SSc patients (for study design details of SCOT trial, see Sullivan K. M. et al., N Engl J Med. 2018 Jan. 4; 378(1): 35-47. doi: 10.1056/nejmoa1703327. [PMID: 29298160]). The trial provided gene expression in the peripheral blood cells (PBCs) from 30 SSc patients who completed HSCT treatment, 33 patients who completed CYC treatment, and 28 healthy controls (Franks J. M. et al., Ann Rheum Dis. 2020 Sep. 15; annrheumdis-2020-217033. doi: 10.1136/annrheumdis-2020-217033. Online ahead of print. [PMID: 32933919]). In the current study, Applicant analyzed the longitudinal expression profile of SCOT patients from baseline to 54 months. 20 month and 26 month data were merged (referred to as 20/26 months), and 48 month and 54 month data were merged (referred to as 48/54 months).
(§2) To reduce the statistical bias of downstream comparisons, Applicant applied seasonal adjustment and linear interpolation to impute those missing time points. The “imputeTS” R package was used. Patients with only baseline gene expression data and no longitudinal samples were not imputed (n=20; 32% of participants; 10 for cyclophosphamide and 10 for transplant).

The test system of a further assay is Interleukin 6 (IL6). The assay can be described thus: SCOT trial longitudinal PBC gene expression: IL6. Format: in vivo, human. The following applies: PBCs of SSc patients.
Source text: as §1, §2

Assay [1] is described as follows: SCOT trial outcomes / event free survival analysis. Format: in vivo, human. The conditions noted are these: CYC arm, median split, P=0.04.
Source text: as §1
Survival analysis was performed using the “survival” R package based on gene level data. Only the baseline gene expression data were considered for these analyses. Patients were divided into two groups using the median expression value of a given gene as cutoff Briefly, high expression group is patients' gene expression greater than or equal to the median value and low expression group is patients' gene expression lower than the median value. […]

Another assay relates to TGF beta. The following applies: cited from earlier work.

Consider `O=P1(N(CCCl)CCCl)NCCCO1` (stereo not drawn) [CYC, cyclophosphamide], for which, in the assay on ACVR1C, the “ACVR1C expression over time” value is “flat trend”. Further, the “IL6 expression over time” value with Interleukin 6 (IL6) is on record as “increased”. Besides, the “hazard ratio (HR) for EFS, higher vs lower baseline CLCF1 expression” value in assay [1] stood at 3.15.
With “fresolimumab: anti-TGF beta monoclonal antibody therapy”, in the assay on TGF beta (SSc patients), the SSc biomarkers result was “decreased” and the clinical symptoms entry is recorded as “improved”. For the same compound, in the assay with TGF beta (SSc), the trial result is listed as “promising results”.
